One data set has as its system granuloma growth. In words: Granuloma growth inhibiting effect (paper disk implanted subcutaneously in rats). The settings on record: oral, 10 days; for Granuloma Dry weight (mean): control 131.9 mg. Format: in vivo, male Donryu rats. The protocol:
Effects of inhibiting granuloma growth were investigated by the method proposed by Fujimura et al. [Oyo Yakuri, 19 (3), 329 (1980)], using five-week old male Donryu rats. As paper disks, filter papers measuring 13 mm.0. and 28 mg and soaked in […] CMC solution (containing 0.1 mg/ml of 1 million unit dihydroxystreptomycin and penicillin, respectively) were used. A paper disk was implanted subcutaneously in the back of the rat under anesthesia. The test drugs dispersed in 0.3% CMC solutions were administered orally for 10 days; then, on the 11th day the granulomas were removed and their weights were measured. To the control group were administered the original 0.3% CMC solution containing no test drug.

Data set [1] in a line: Acute toxicity in mice (LD50, Litchfield-Wilcoxon method). The settings on record: mouse, in vivo, Jcl:ICR female mice, observed for 7 days. The protocol: The prescribed amounts of the test drugs dispersed in 0.3% CMC aqueous solution at a rate of 20 mg/ml for oral administration and the test drugs dissolved in 10% ethanol isotonic sodium chloride solution as a rate of 200 mg/ml for intraperitoneal administration were applied using gastric probes and syringes, respectively.

The test system of a further data set is male mice. The note with it: DRUGS IN JAPAN (ETHICAL DRUGS), 9th Edition (1985), p.105; cited from earlier work.
A short description of data set [2]: Toxicity compared in words. Format: in vivo. The settings on record: from LD50 of reference against LD50 of Table 1.
For a further data set, the system named is male rats. The settings on record: DRUGS IN JAPAN (ETHICAL DRUGS), 9th Edition (1985), p.105; cited from earlier work.
For data set [3] the following is noted: in vivo; cited from earlier work.
In data set [4] the test system is blood platelet agglutination. The settings on record: in vitro, low concentration level; cited from earlier work.
The subject of a further data set is leukocytic migration. The settings on record: in vitro, low concentration level; cited from earlier work.
The mark [5] stands for this setting: ip, intraperitoneal, dissolved in 10% ethanol isotonic sodium chloride solution, read-out: LD50, Intraperitoneal Administration.
Setting [6] is: oral, dispersed in 0.3% CMC aqueous solution, read-out: LD50, Oral Administration.

Read-outs that look alike come from different tables or passages of the source.

`CO[C@H]1O[C@@H]2COC(c3ccc(OC(=O)c4ccccc4)c(OC(=O)c4ccccc4)c3)O[C@H]2[C@H](O)[C@H]1O` (stereo partly drawn) [Ia1, Methyl-4,6-O-(3',4'-dibenzoyloxybenzylidene)-α-D-glucopyranoside]: the “Granuloma Inhibition rate” value in the data set on granuloma growth (10 mg/kg/day) was found to be 29.8%; with granuloma growth (50 mg/kg/day), 43.7%. Further, the entries for the “Granuloma Dry weight (mean)” value in the data set on granuloma growth (10 mg/kg/day) and with granuloma growth (50 mg/kg/day) were 92.6 mg and 74.3 mg, respectively. The LD50 at 168 h in data set [1] (setting [5]) is 1900 mg/kg; in data set [1] (setting [6]) it was over 4000 mg/kg.
For `CO[C@H]1O[C@@H]2COC(c3ccc(O)c(O)c3)O[C@H]2[C@H](O)[C@H]1O` (stereo partly drawn) [Ib1, Methyl-4,6-O-(3',4'-dihydroxybenzylidene)-α-D-glucopyranoside], the “Granuloma Inhibition rate” value worked out at 30.7% in the data set on granuloma growth (10 mg/kg/day) and 50.0% in the data set with granuloma growth (50 mg/kg/day). Besides, the “Granuloma Dry weight (mean)” value is 91.4 mg in the data set on granuloma growth (10 mg/kg/day) and 66.0 mg in the data set with granuloma growth (50 mg/kg/day). Further, the LD50 at 168 h is over 3000 mg/kg in data set [1] (setting [5]) and over 4000 mg/kg in data set [1] (setting [6]).
On to `COc1ccc2c(c1)c(CC(=O)O)c(C)n2C(=O)c1ccc(Cl)cc1` [Indomethacin, indomethacin], for which the LD50 value in the data set on male mice is 30.2 mg/kg. Besides, in the data set with granuloma growth (3 mg/kg/day), the “Granuloma Inhibition rate” value is listed as 45.9% and the “Granuloma Dry weight (mean)” value is 71.3 mg. Further, the “Toxicity compared with PAL and the compounds of the present invention (in words)” value in data set [2] was “more toxic than both PAL and the compounds of the present invention”. Besides, the LD50 value with male rats was 29 mg/kg.
`O=Cc1ccc(O)c(O)c1` [PAL, protocatechualdehyde]: the “Metabolic rate (in words)” value in data set [3] is recorded as “higher metabolic rate”. The “Inhibiting blood platelet agglutination (in words)” value in data set [4] was “shows a suitable effect”. Besides, in the data set on granuloma growth (50 mg/kg/day), the “Granuloma Inhibition rate” value is on record as 34.2% and the “Granuloma Dry weight (mean)” value came out at 86.8 mg. Besides, the “Inhibiting leukocytic migration (in words)” value in the data set with leukocytic migration was “shows a suitable effect”.

The values above are taken from patent US5120835A, “Saccharide derivatives of protocatechualdehyde” (Kureha Chemical Industry Co., Ltd., priority 1989, dated 1992).
